From the supplement of paper PMC6580486

How the values were obtained:
PCB490-4 = system: PCB490-4 (human epithelioid sarcoma primary culture)
Method: (§1)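 Roche open-access kinase inhibitor screen (223 compounds) on human epithelioid sarcoma primary cultures from three spatially distinct regions of tumor PCB490. 384-well plates, 72 h, CellTiter-Glo viability; IC50 by Hill curve fit. 100000 nM = no IC50 reached. Compound ids carry a plate-well prefix, which is stripped.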

PCB490-5 = system: PCB490-5 (human epithelioid sarcoma primary culture)
Method: as §1

PCB490-3 = system: PCB490-3 (human epithelioid sarcoma primary culture)
Method: as §1

Compound | IC50 cell viability (U23674) [µM] | also measured
Cn1cc(C2=C(c3ccc4ccccc4c3)C(=O)NC2=O)c2ccccc21 | – | IC50 cell viability (PCB490-4): > 100 µM; IC50 cell viability (PCB490-5): > 100 µM; IC50 cell viability (PCB490-3): > 100 µM
Cn1c(=O)c(Oc2ccccc2)cc2cnc(NC3CCOCC3)nc21 | – | IC50 cell viability (PCB490-4): > 100 µM; IC50 cell viability (PCB490-5): > 100 µM; IC50 cell viability (PCB490-3): > 100 µM
CC(=O)N[C@@H](Cc1ccc(OP(=O)(O)O)cc1)C(=O)N[C@H]1CCC(=O)N2CCC[C@@H](C(=O)NCc3ccc(Cl)cc3)N2C1=O | – | IC50 cell viability (PCB490-4): > 100 µM; IC50 cell viability (PCB490-5): > 100 µM; IC50 cell viability (PCB490-3): > 100 µM
Nc1c(C(=O)c2cccc(C#CCN3CCOCC3)c2)cnn1-c1ccc(F)cc1 | – | IC50 cell viability (PCB490-4): > 100 µM; IC50 cell viability (PCB490-5): > 100 µM; IC50 cell viability (PCB490-3): > 100 µM
COc1cc[nH]c1/C=C1\C(=O)Nc2ccc(F)c(C#CC3(O)CCNCC3)c21 | – | IC50 cell viability (PCB490-4): 1 µM; IC50 cell viability (PCB490-5): 0.67 µM; IC50 cell viability (PCB490-3): > 100 µM
Cc1[nH]n(-c2ccccc2)c(=O)c1C(=O)c1ccccc1 | – | IC50 cell viability (PCB490-4): > 100 µM; IC50 cell viability (PCB490-5): > 100 µM; IC50 cell viability (PCB490-3): > 100 µM
Cn1cc(C2=C(n3ccc4ccccc43)C(=O)NC2=O)c2ccccc21 | – | IC50 cell viability (PCB490-4): > 100 µM; IC50 cell viability (PCB490-5): > 100 µM; IC50 cell viability (PCB490-3): > 100 µM
CNCC#Cc1c(F)ccc2c1/C(=C/c1[nH]ccc1OC)C(=O)N2 | – | IC50 cell viability (PCB490-4): 20.7 µM; IC50 cell viability (PCB490-5): 19.5 µM; IC50 cell viability (PCB490-3): 26.8 µM
Cn1cc(C2=C(c3cn(C)c4ncccc34)C(=O)NC2=O)c2ccccc21 | – | IC50 cell viability (PCB490-4): > 100 µM; IC50 cell viability (PCB490-5): > 100 µM; IC50 cell viability (PCB490-3): > 100 µM
O=C1Nc2ccc(F)cc2/C1=C/c1ccc[nH]1 | – | IC50 cell viability (PCB490-4): > 100 µM; IC50 cell viability (PCB490-5): > 100 µM; IC50 cell viability (PCB490-3): > 100 µM
FC(F)(F)CNc1nccc(-c2cnn3ncccc23)n1 | 4.4 | –
Cc1nc(-c2ccccc2)n2nc(NCCCN3CCOCC3)ncc12 | > 10 | –
COc1ccccc1-c1cc(/C=C2\C(=O)Nc3ncc(Br)cc32)cc(Br)c1O | > 10 | –
Cc1ccc2c(-c3ccnc(Nc4ccc5c(c4)OCCO5)n3)c(-c3ccc(C(F)(F)F)cc3)nn2n1 | > 10 | –
O=C(Nc1n[nH]c2cc(-c3cc(F)ccc3F)ccc12)C1CC1 | > 10 | –
NS(=O)(=O)c1ccc(N=Nc2c(O)[nH]c3cccc(CCc4ccncc4)c23)cc1 | > 10 | –
Cc1nnc(-c2ccc(C)c(-c3ccc(C(=O)NCc4ccc(Cl)cc4)cc3)c2)o1 | > 10 | –
COc1ccc(-c2ccncc2)cc1C(N)=O | > 10 | –
Nc1nccc(-c2c(-c3ccc(F)cc3)nn3cc(C(F)(F)F)ccc23)n1 | > 10 | –
CN1CCC(n2cnc(-c3ccc(F)cc3)c2-c2ccnc(NCCO)n2)CC1 | > 10 | –
CN1CCN(Cc2ccc(-c3cc4ncnc(Nc5ccc(OCc6cccc(F)c6)c(Cl)c5)c4s3)o2)CC1 | > 10 | –
COc1cc2ncn(-c3cc(OCc4ccccc4Cl)c(C(N)=O)s3)c2cc1OC | > 10 | –

Compound | IC50 cell viability (U23674) [µM] | also measured
Nc1nonc1-c1nc2cnccc2n1C1CCCCC1 | > 10 | –
NC(=O)c1cc(-c2ccncc2)cc(-c2ccccc2)c1N | > 10 | –
CCc1cccc(CC)c1/C=C/c1cncc(C(=O)NC)c1 | > 10 | –
CS(=O)(=O)Nc1ccc(-c2cc(-c3ccccc3)cc(C(N)=O)c2N)cc1 | > 10 | –
CCc1nn2ncccc2c1-c1ccnc(NC2CC2)n1 | > 10 | –
COC(=O)Nc1nc2ccc(Sc3ccc(NC(=O)Nc4cc(C(F)(F)F)ccc4F)cc3)cc2[nH]1 | > 10 | –
COc1cccc(-n2ncc3c(N/N=C/c4ccncc4)ncnc32)c1 | > 10 | –
COc1cccc(Nc2nccc(-c3cnn4ncccc34)n2)c1 | 0.01 | –
CC(=O)NCc1cccc(C#Cc2cncnc2Nc2ccc(OCc3cccc(F)c3)c(Cl)c2)c1 | > 10 | –
CNC(=O)c1cc(-c2ccc(F)cc2)cc(-c2ccc(S(=O)(=O)N3CCCC3)cc2)c1N | > 10 | –
COc1ccc(-c2oc3ncnc(N)c3c2-c2ccc(NC(=O)Nc3cc(C(F)(F)F)ccc3F)cc2)cc1 | > 10 | –
CCNC(=O)O[C@H]1CN[C@H](C#Cc2cc3ncnc(Nc4ccc(OCc5cccc(F)c5)c(Cl)c4)c3s2)C1 | > 10 | –
C[C@@H](Oc1cc(-n2cnc3ccc(OCC4CCN(C)CC4)cc32)sc1C(N)=O)c1ccccc1C(F)(F)F | 0.1 | –
COc1cc2c(cc1Nc1nc(Nc3ccsc3C(N)=O)c3cc[nH]c3n1)N(C(=O)CN(C)C)CCC2(C)C | 0.4 | –
c1ccc(-c2[nH]ncc2-c2ccnc(-c3ccc(OCCn4ccnc4)cc3)c2)nc1 | > 10 | –
Cc1cc(O)cc(C)c1/C=C/c1cncc(C(N)=O)c1 | > 10 | –
COc1ccc(-c2cc3c(N)ncnc3o2)cc1 | > 10 | –
Cc1ccc(C(=O)NC2CC2)cc1-c1ccc2[nH]ncc2c1 | > 10 | –
CS(=O)(=O)CCNCc1ccc(-c2ccc3ncnc(Nc4ccc(OCc5ccccc5)cc4)c3c2)o1 | > 10 | –
CCC(=O)Nc1ccc(C)c(-c2ccc(C(=O)NCC3CC3)cc2)c1 | > 10 | –
COc1ccc(-c2nn3ncccc3c2-c2ccnc(Nc3cccc(C(F)(F)F)c3)n2)cc1 | > 10 | –
Cc1cc(-c2ccco2)cc(C)c1/C=C/c1cncc(-c2nn[nH]n2)c1 | > 10 | –

Compound | IC50 cell viability (U23674) [µM] | also measured
COc1cc(Nc2ncc3c(C)nc(-c4cccc(C(F)(F)F)c4)n3n2)cc(OC)c1OC | > 10 | –
COc1ccc(-c2nn3ncccc3c2-c2ccnc(Nc3ccc(Cl)c(C(F)(F)F)c3)n2)cc1 | > 10 | –
COC(=O)Nc1nc2ccc(Oc3cccc(NC(=O)Nc4cc(C(F)(F)F)ccc4F)c3)cc2[nH]1 | > 10 | –
Fc1ccc(-c2ncn(C3CCNCC3)c2-c2ccnc(Oc3ccc(Oc4ccccc4)cc3)n2)cc1 | 2 | –
CCn1c(-c2nonc2N)nc2c(C#CC(C)(C)O)ncc(OCC3CCCN3)c21 (configuration not stated) | 5.2 | –
CN(c1ccc(NC(=O)Nc2c(Cl)cccc2Cl)cc1)c1ccnc(Nc2cccc(CS(C)(=O)=O)c2)n1 | > 10 | –
Cc1cc(Cl)cc2c(N=Nc3ccc(S(N)(=O)=O)cc3)c(O)[nH]c12 | > 10 | –
C#Cc1cccc(Nc2ncnc3ccc(OCCCCNCCS(C)(=O)=O)cc23)c1 | 4.9 | –
NC(=O)c1sc(-n2cnc3cc(C(F)(F)F)ccc32)cc1OCc1ccccc1Br | > 10 | –
CN1CCC(n2cnc(-c3ccc(F)cc3)c2-c2ccnc(Nc3ccccc3)n2)CC1 | > 10 | –
Fc1ccc(-c2cc(-c3cn[nH]c3-c3ccccn3)ccn2)cc1 | > 10 | –
Nc1nc(-c2ccc(F)cc2)c(-c2ccc3ncccc3n2)s1 | > 10 | –
C[C@@H](Oc1cc(-n2cnc3ccc(OC[C@@H](O)CO)cc32)sc1C(N)=O)c1ccccc1Cl | 5.4 | –
FC(F)(F)c1ccc(-c2nn3ncccc3c2-c2ccnc(Nc3ccc4c(c3)OCCO4)n2)cc1 | > 10 | –
NS(=O)(=O)c1cccc(Nc2cc(-c3ccc(F)cc3)[nH]n2)c1 | > 10 | –
COC(=O)Nc1nc2ccc(S(=O)(=O)c3ccc(NC(=O)Nc4cc(C(F)(F)F)ccc4F)cc3)cc2[nH]1 | > 10 | –
CS(=O)(=O)CCNCc1ccc(-c2ccc3ncnc(Nc4ccc(OCc5ccccc5)c(C(F)(F)F)c4)c3c2)o1 | > 10 | –
CS(=O)(=O)CCN(CC#N)Cc1ccc(-c2ccc3ncnc(Nc4ccc(OCc5cccc(F)c5)c(Cl)c4)c3c2)o1 | > 10 | –
Cc1cc(O)cc(C)c1/C=C/c1cncc(C(=O)N(C)C)c1 | > 10 | –
Cc1nnc(-c2ccc(C)c(-c3ccc(C(=O)Nc4cccc(C#N)c4)cc3)c2)o1 | > 10 | –
C[C@@H](Oc1cc(-n2cnc3ccc(OCC4CCN(C)CC4)cc32)sc1C(N)=O)c1ccccc1Cl | 1.3 | –
Nc1nc(-c2ccccn2)c(-c2ccc3ncccc3n2)s1 | > 10 | –

Compound | IC50 cell viability (U23674) [µM] | also measured
COc1cc(Nc2ncc(-c3ccccc3)o2)cc(OC)c1OC | > 10 | –
CS(=O)(=O)CCNCc1nc(-c2ccc3ncnc(Nc4ccc(OCc5cccc(C(F)(F)F)c5)cc4)c3c2)cs1 | > 10 | –
CN(C)C(=O)O[C@@H]1CN[C@@H](C#Cc2cc3ncnc(Nc4ccc(OCc5cccc(F)c5)c(Cl)c4)c3s2)C1 | > 10 | –
Fc1cccc(COc2ccc(Nc3ncnc4sc(-c5ccco5)cc34)cc2Cl)c1 | > 10 | –
Nc1nonc1-c1nc2cnccc2n1C1CC1 | > 10 | –
CCn1c(-c2nonc2N)nc2ccccc21 | > 10 | –
CC(=O)Nc1cccc(C#Cc2cncnc2Nc2ccc(OCc3cccc(F)c3)c(Cl)c2)c1 | > 10 | –
COc1cc2ncn(-c3cc(OCc4ccccc4S(C)(=O)=O)c(C#N)s3)c2cc1OC | > 10 | –
CS(=O)(=O)CCNCc1nc(-c2ccc3ncnc(Nc4ccc(F)c(Cl)c4)c3c2)cs1 | > 10 | –
COc1ccc2cc(-c3c(-c4ccncc4)nc(-c4ccc(S(C)(=O)=O)cc4C)n3C)ccc2c1 | > 10 | –
Fc1cccc(COc2ccc(Nc3ncncc3C#Cc3ccccc3)cc2Cl)c1 | > 10 | –
CC(C)c1ccc(Nc2nccc(-c3cnn4ncccc34)n2)cc1 | > 10 | –
O=C1NC(=O)C(c2ccccc2Cl)=C1Nc1cccc(O)c1 | 2 | –
Cc1nnc(-c2cccc(-c3ccc(C(=O)NCC4CC4)cc3)c2)o1 | > 10 | –
CCN1CCC(CC(=O)Nc2n[nH]c3nnc(-c4cccc(F)c4F)cc23)CC1 | 5.1 | –
O=C(Nc1ccc(Oc2ccc3nc(NC(=O)c4ccco4)[nH]c3c2)cc1)Nc1cc(C(F)(F)F)ccc1F | > 10 | –
CN(C)CCNC(=O)Nc1ccc(N(C)c2ccnc(Nc3ccc(CS(C)(=O)=O)cc3)n2)cc1 | > 10 | –
c1ccc(Oc2ccc(Nc3ncc(-c4ccccc4)o3)cc2)cc1 | > 10 | –
NS(=O)(=O)c1ccc(N=Nc2c(O)[nH]c3ccc(C(=O)NCCc4cnc[nH]4)cc23)cc1 | > 10 | –
Nc1ncnc2occ(-c3ccc(NC(=O)Nc4cccc(C(F)(F)F)c4)cc3)c12 | 5.2 | –
Cc1ccc(C(=O)NC2CCCCC2)cc1-c1ccc(C(=O)NCC2CC2)cc1 | > 10 | –
